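In this assay, cells in 96-well plates receive the compound at five concentrations for 48 hours. Endpoints are linearly interpolated between the surrounding concentrations. GI50: concentration for 50% inhibition of growth. TGI: total growth inhibition.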
Key:
Experiment in all cases: NCI anticancer screen, dose series, 48 h
[1] = system: OVCAR-4 ovarian
[2] = system: K-562 leukemia
[3] = system: HL-60(TB) leukemia
[4] = system: A498 renal
[5] = system: NCI-H460 lung
[6] = system: SF-539 CNS
[7] = system: U251 CNS
[8] = system: UO-31 renal
[9] = system: UACC-62 melanoma
[10] = system: NCI/ADR-RES ovarian

Row | SMILES | TGI [1] [µM] | TGI [2] [µM] | TGI [3] [µM] | TGI [4] [µM] | TGI [5] [µM] | TGI [6] [µM] | TGI [7] [µM] | TGI [8] [µM] | TGI [9] [µM] | TGI [10] [µM] | GI50 [1] [µM] | GI50 [2] [µM] | GI50 [3] [µM] | GI50 [4] [µM] | GI50 [10] [µM] | GI50 [5] [µM] | GI50 [6] [µM] | GI50 [7] [µM] | GI50 [8] [µM] | GI50 [9] [µM]
1 | Nc1nc(N)c(N=Nc2ccccc2)c(=O)[nH]1 | > 100 | > 100 | > 100 | > 100 | > 100 | > 100 | > 100 | > 100 | 69.7 | – | – | – | – | – | – | – | – | – | – | –
2 | CC=C/C=C/[C@@H]1O[C@](O)([C@H](CC)C(=O)NC/C=C/C=C(\C)[C@@H](OC)[C@@H](C)[C@@H]2O[C@H](/C=C/C=C/C=C(\C)C(=O)c3c(O)cc[nH]c3=O)[C@H](O)[C@@H]2O)[C@H](O)[C@H](O)C1(C)C | > 100 | > 100 | > 100 | > 100 | > 100 | > 100 | > 100 | > 100 | > 100 | > 100 | – | – | – | – | – | – | – | – | – | –
3 | OCC1NC(CO)C(O)C1O (centres undefined) | > 100 | > 100 | > 100 | > 100 | > 100 | – | > 100 | > 100 | > 100 | > 100 | – | – | – | – | – | – | – | – | – | –
4 | COc1ccc(/C=C/c2cc(O)cc(OC3OC(CO)C(O)C(O)C3O)c2)cc1O (centres undefined) | > 100 | > 100 | > 100 | > 100 | > 100 | > 100 | > 100 | > 100 | > 100 | > 100 | – | – | – | – | – | – | – | – | – | –
5 | CCOP(=O)(OCC)C(Cc1c[nH]c2ccccc12)C(=O)O (centres undefined) | > 100 | > 100 | > 100 | > 100 | > 100 | – | > 100 | > 100 | – | > 100 | – | – | – | – | – | – | – | – | – | –
6 | COc1ccc(CCn2ccc(C)n2)c(OC)c1 | > 100 | > 100 | – | – | > 100 | > 100 | > 100 | > 100 | > 100 | > 100 | – | – | – | – | – | – | – | – | – | –
7 | O=C(Nc1ccc(C(F)(F)F)cc1[N+](=O)[O-])C(=O)Nn1c(=S)[nH]c2ccccc2c1=O | > 100 | > 100 | > 100 | > 100 | > 100 | > 100 | > 100 | > 100 | > 100 | – | – | – | – | – | – | – | – | – | – | –
8 | COc1ncnc2c(Cl)c(C(O)c3ccccc3)c(Cl)cc12 (centres undefined) | > 100 | 69.3 | > 100 | 53.2 | > 100 | 50.2 | > 100 | > 100 | 52.1 | > 100 | – | – | – | – | – | – | – | – | – | –
9 | CC(=O)OC/C=C\Cn1ncc(=O)[nH]c1=O | – | 54.9 | 30.1 | 31.9 | 48.7 | 35.7 | 28.2 | 37.5 | – | 50.6 | – | – | – | – | – | – | – | – | – | –
10 | Fc1ccc(C2CC(c3cccc(Nc4ccncc4)c3)=NN2c2ccccc2)cc1 (centres undefined) | 3.07 | 6.86 | 4.49 | 6.92 | 3.19 | 3.06 | 3.64 | 2.86 | 3.24 | 3.13 | 1.61 | 2.42 | 2.08 | 0.446 | 1.65 | 1.76 | 1.65 | 1.84 | 1.45 | 1.76
11 | Nc1ccc(C2(c3ccc(N)cc3)C3CC4CC(C3)CC2C4)cc1 | 32.5 | 47.4 | 46.6 | 41.3 | – | – | 37 | 33.9 | 30.6 | 23.4 | – | – | – | – | – | – | – | – | – | –

Source: PubChem BioAssay (NCI)
